Read-outs that look alike come from different tables or passages of the source.
Experiments:
[1] = test system: glucose-6-phosphatase translocase mRNA; test: Target reduction in liver: rat dose-response study (Table 12); type: in vivo; settings: Sprague-Dawley rats; for % Inhibition, target reduction in liver: three weeks
Experimental: Each treatment group was comprised of 4 animals.
At the end of the treatment period, animals were sacrificed and target reduction in liver was measured by real-time PCR as described in other examples herein. Results are shown in Table 12 as the average percent reduction in glucose-6-phosphatase translocase levels as compared to saline treated control.

[2] = test system: rat glucose-6-phosphatase translocase mRNA; test: Reduction of glucose-6-phosphatase translocase mRNA in liver or kidney of ZDF rats (Table 15); type: in vivo; settings: for % Inhibition of glucose-6-phosphatase translocase, Kidney / % Inhibition of glucose-6-phosphatase translocase, Liver: alone or with rosiglitazone 3 mg/kg daily
Experimental: Saline-injected animals served as a control treatment group. At the end of the treatment period, animals were sacrificed and target reduction in liver and kidney were measured by real-time PCR as described in other examples herein. […] For example, the following primer-probe set was designed to hybridize to rat glucose-6-phosphatase translocase sequences cited in Table 1: Forward primer: [NT] (incorporated herein as SEQ ID NO: 339) Reverse primer: [NT] (incorporated herein as SEQ ID NO: 340) PCR probe: […] (incorporated herein as SEQ ID NO: 341), where FAM is the fluorescent dye and TAMRA is the quencher dye.

[3] = rat, in vivo
Experimental: (§2) Male Zucker fa/fa rats, about 17 to 18 weeks of age, purchased from Charles River Laboratories (Wilmington, Mass.), are maintained on a normal rodent diet. Animals are placed into treatment groups of 8 animals each. […] Another treatment group received the food-administered daily doses of 3 mg/kg of rosiglitazone alone. Saline-injected animals served as a control treatment group.
The liver transaminases, ALT and AST, were measured throughout the study.

[4] = Plasma lipids (cholesterol, triglycerides, free fatty acids) in ZDF rats (Table 21); type: in vivo, rat
Experimental: (§1) Saline-injected animals served as a control treatment group.
To further assess the physiological effects resulting from inhibition of target mRNA with antisense oligonucleotide alone or in combination with rosiglitazone, the rats were evaluated throughout the treatment period for plasma free fatty acids, plasma cholesterol, and plasma triglyceride levels. Free fatty acids, triglycerides and cholesterol were measured by routine clinical analyzer instruments (e.g. Olympus Clinical Analyzer, Melville, N.Y.). Glucose levels were measured using a glucose analyzer, for example a YSI glucose analyzer (YSI Scientific, Yellow Springs, Ohio).

[5] = rat, in vivo; remark: listed apart in the source
Experimental: as §2
Also monitored throughout the study was body composition. Baseline body composition was measured by MRI prior to the start of treatment (BL). Body composition was also measured during week 3 (Wk 3) and during week 5 (Wk 5) of treatment.

[6] = Plasma glucose levels of ZDF rats, alone or in combination with rosiglitazone (Table 16); type: in vivo, rat; settings: alone or with Rosi
Experimental: as §1
Plasma glucose levels were evaluated at the beginning of the study (Wk 0), during the first week of treatment (Wk 1), during the third week of treatment (Wk 3), and during the fifth week of treatment (Wk 5).

[7] = test system: catalytic subunit of glucose-6-phosphatase (G6PC) mRNA; test: Reduction of catalytic subunit of glucose-6-phosphatase (G6PC) mRNA in liver or kidney of ZDF rats (Table 15); type: in vivo, rat; settings: alone or with rosiglitazone 3 mg/kg daily
Experimental: as §1
At the end of the treatment period, animals were sacrificed and target reduction in liver and kidney were measured by real-time PCR as described in other examples herein. Also measured were reductions in the catalytic subunit of glucose-6-phosphatase (G6PC) using a primer-probe set designed to hybridize to that mRNA. For example, the following primer-probe set was designed to hybridize to rat glucose-6-phosphatase translocase sequences cited in Table 1:
Results for each treatment group are shown in Table 15 as the average percent reduction in glucose-6-phosphatase translocase levels or in G6PC as compared to saline treated control.

[8] = rat, in vivo; remark: listed apart in the source
Experimental: For three weeks, male Sprague-Dawley rats were injected twice-weekly with doses of 12.5 mg/kg, 25 mg/kg, or 50 mg/kg of ISIS 145760, ISIS 359543, or ISIS 366228. Each treatment group was comprised of 4 animals. Animals which received twice weekly injections of saline served as controls.
Body weight was monitored throughout the study period. […] Tissue weights were also measured at the end of the study.

aged Zucker fa/fa rats = test: Oral glucose tolerance test in ZDF rats (Table 17); type: in vivo, rat; settings: alone or with Rosi
Experimental: as §1
To further evaluate the effects of ISIS 366228 alone or in combination with rosiglitazone, oral glucose tolerance tests were performed during the third week of treatment. To provide a baseline glucose level, fasted blood glucose levels were measured before the challenge. Glucose was administered by oral gavage via an 18 gauge gavage needle at a dose of 1 g/kg. Plasma glucose levels were measured for 15, 30, 60, 90, and 120 minutes post-challenge, using a glucose analyzer (for example, an Ascencia Glucometer Elite XL, Bayer, Tarrytown, N.Y.).

[9] = ISIS 366228 12.5 mg/kg twice weekly
[10] = ISIS 366228 25 mg/kg twice weekly

In the case of “GTGCTTGGCGATGGTACTGA (chemistry not given here) [ISIS 366228]”, the “% Inhibition, target reduction in liver” value ([1]; 12.5 mg/kg twice weekly) is reported as 69%, the “% Inhibition, target reduction in liver” value ([1]; 25 mg/kg twice weekly) is reported as 82% and the “% Inhibition, target reduction in liver” value ([1]; 50 mg/kg twice weekly) is reported as 90%. For the same sequence, the “target mRNA levels in rat liver (in words)” value ([1]; 12.5 to 50 mg/kg) was “effective in reducing target mRNA levels in rat liver in a dose-dependent manner”, the “glucose-6-phosphatase translocase levels in liver and kidney (in words)” value [2] was “reduced glucose-6-phosphatase translocase levels in liver and kidney at both doses” and the “% Inhibition of glucose-6-phosphatase translocase, Kidney” value [2, 9] was 35%. For the same sequence, the “% Inhibition of glucose-6-phosphatase translocase, Liver” value [2, 9] was 40%, the “% Inhibition of glucose-6-phosphatase translocase, Kidney” value [2, 10] was 46% and the “% Inhibition of glucose-6-phosphatase translocase, Liver” value [2, 10] was 80%. The “liver transaminases ALT and AST (in words)” value [3] was “reductions in levels of these indicators of liver function”, the “plasma cholesterol (CHOL)” value ([4]; Wk 0, ISIS 366228 12.5 mg/kg) was 207 mg/dL and the “plasma triglycerides (TRIG)” value ([4]; Wk 0, ISIS 366228 12.5 mg/kg) was 460 mg/dL. For the same sequence, the “plasma cholesterol (CHOL)” value ([4]; Wk 0, ISIS 366228 25 mg/kg) was 210 mg/dL, the “plasma triglycerides (TRIG)” value ([4]; Wk 0, ISIS 366228 25 mg/kg) was 470 mg/dL and the “plasma cholesterol (CHOL)” value ([4]; Wk 1, ISIS 366228 12.5 mg/kg) was 201 mg/dL. For the same sequence, the “plasma triglycerides (TRIG)” value ([4]; Wk 1, ISIS 366228 12.5 mg/kg) was 379 mg/dL, the “plasma cholesterol (CHOL)” value ([4]; Wk 1, ISIS 366228 25 mg/kg) was 196 mg/dL and the “plasma triglycerides (TRIG)” value ([4]; Wk 1, ISIS 366228 25 mg/kg) was 307 mg/dL. The “plasma cholesterol (CHOL)” value ([4]; Wk 3, ISIS 366228 12.5 mg/kg) was 196 mg/dL, the “plasma triglycerides (TRIG)” value ([4]; Wk 3, ISIS 366228 12.5 mg/kg) was 416 mg/dL and the “plasma cholesterol (CHOL)” value ([4]; Wk 3, ISIS 366228 25 mg/kg) was 206 mg/dL. The “plasma triglycerides (TRIG)” value ([4]; Wk 3, ISIS 366228 25 mg/kg) was 354 mg/dL, the “plasma cholesterol (CHOL)” value ([4]; Wk 5, ISIS 366228 12.5 mg/kg) was 176 mg/dL and the “plasma triglycerides (TRIG)” value ([4]; Wk 5, ISIS 366228 12.5 mg/kg) was 478 mg/dL. For the same sequence, the “plasma cholesterol (CHOL)” value ([4]; Wk 5, ISIS 366228 25 mg/kg) was 183 mg/dL, the “plasma triglycerides (TRIG)” value ([4]; Wk 5, ISIS 366228 25 mg/kg) was 472 mg/dL and the “plasma cholesterol (in words)” value ([4]; compared with saline or rosiglitazone alone) was “prevented increases in plasma cholesterol”. The “body fat percentage (in words)” value [5] was “did not cause marked increases in body fat percentage”, the Plasma glucose ([6]; ISIS 366228 12.5 mg/kg, Wk 0, saline 571) was 570 mg/dL and the Plasma glucose ([6]; ISIS 366228 12.5 mg/kg, Wk 1, saline 549) was 549 mg/dL. It also gave a Plasma glucose ([6]; ISIS 366228 12.5 mg/kg, Wk 3, saline 552) of 547 mg/dL, a Plasma glucose ([6]; ISIS 366228 12.5 mg/kg, Wk 5, saline 536) of 532 mg/dL and a Plasma glucose ([6]; ISIS 366228 25 mg/kg, Wk 0) of 569 mg/dL. For the same sequence, the Plasma glucose ([6]; ISIS 366228 25 mg/kg, Wk 1) was 542 mg/dL, the Plasma glucose ([6]; ISIS 366228 25 mg/kg, Wk 3) was 507 mg/dL and the Plasma glucose ([6]; ISIS 366228 25 mg/kg, Wk 5) was 488 mg/dL. For the same sequence, the “% Inhibition of G6PC, Kidney” value [7, 9] was 17%, the “% Inhibition of G6PC, Liver” value [7, 9] was 39% and the “% Inhibition of G6PC, Kidney” value [7, 10] was 33%. The “% Inhibition of G6PC, Liver” value [7, 10] was 0%, the Fat weight ([8]; 12.5 mg/kg) was 1.6 grams and the Fat weight ([8]; 25 mg/kg) was 1.5 grams. The Fat weight ([8]; 50 mg/kg) was 1.1 grams, the Kidney weight ([8]; 50 mg/kg) was 3 grams and the Liver weight ([8]; 50 mg/kg) was 15 grams. The Spleen weight ([8]; 50 mg/kg) was 1.1 grams, the “plasma glucose, OGTT” value (aged Zucker fa/fa rats; week 3, ISIS 366228 12.5 mg/kg, 0 min (fasted)) was 317 mg/dL and the “plasma glucose, OGTT” value (aged Zucker fa/fa rats; week 3, ISIS 366228 12.5 mg/kg, 15 min) was 418 mg/dL. The “plasma glucose, OGTT” value (aged Zucker fa/fa rats; week 3, ISIS 366228 12.5 mg/kg, 30 min) was 553 mg/dL, the “plasma glucose, OGTT” value (aged Zucker fa/fa rats; week 3, ISIS 366228 12.5 mg/kg, 60 min) was 485 mg/dL and the “plasma glucose, OGTT” value (aged Zucker fa/fa rats; week 3, ISIS 366228 12.5 mg/kg, 90 min) was 441 mg/dL. For the same sequence, the “plasma glucose, OGTT” value (aged Zucker fa/fa rats; week 3, ISIS 366228 12.5 mg/kg, 120 min) was 444 mg/dL, the “plasma glucose, OGTT” value (aged Zucker fa/fa rats; week 3, ISIS 366228 25 mg/kg, 0 min (fasted)) was 303 mg/dL and the “plasma glucose, OGTT” value (aged Zucker fa/fa rats; week 3, ISIS 366228 25 mg/kg, 15 min) was 453 mg/dL. The “plasma glucose, OGTT” value (aged Zucker fa/fa rats; week 3, ISIS 366228 25 mg/kg, 30 min) was 540 mg/dL, the “plasma glucose, OGTT” value (aged Zucker fa/fa rats; week 3, ISIS 366228 25 mg/kg, 60 min) was 461 mg/dL and the “plasma glucose, OGTT” value (aged Zucker fa/fa rats; week 3, ISIS 366228 25 mg/kg, 90 min) was 427 mg/dL. For the same sequence, the “plasma glucose, OGTT” value (aged Zucker fa/fa rats; week 3, ISIS 366228 25 mg/kg, 120 min) was 408 mg/dL.

From US8258114B2, “Modulation of glucose-6-phosphatase translocase expression” (Isis Pharmaceuticals, Inc., priority 2004, dated 2012)
